Test system: K24384-001-R-PDC complex spheroid growth
Assay: Anticancer human tumor K24384-001-R-PDC patient-derived pancreatic adenocarcinoma cell line growth inhibition [AhR]
Settings: for IC50: curve of first compound; for viability, T/C: stronger effect = lower value
How it was run: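 Complex tumor spheroids co-cultured with HUVEC and human MSC stroma; AhR antagonists tested in combination with standard-of-care and investigational agents. Top concentration at or near clinical Cmax (else 10 microM), half-log dilutions; growth expressed as percent test/control.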

[1] = second compound 0.1 µM, first compound 0.0316 µM
[2] = second compound 0.1 µM, first compound 0.1 µM
[3] = second compound 0.1 µM, first compound 0.316 µM
[4] = second compound 0.1 µM, first compound 1 µM
[5] = second compound 0.1 µM, first compound 3.16 µM
[6] = second compound 0.1 µM, first compound 10 µM
[7] = second compound 0.316 µM, first compound 0.0316 µM
[8] = second compound 0.316 µM, first compound 0.1 µM
[9] = second compound 0.316 µM, first compound 0.316 µM
[10] = second compound 0.316 µM, first compound 1 µM
[11] = second compound 0.316 µM, first compound 3.16 µM
[12] = second compound 0.316 µM, first compound 10 µM
[13] = second compound 1 µM, first compound 0.0316 µM
[14] = second compound 1 µM, first compound 0.1 µM
[15] = second compound 1 µM, first compound 0.316 µM
[16] = second compound 1 µM, first compound 1 µM
[17] = second compound 1 µM, first compound 3.16 µM
[18] = second compound 1 µM, first compound 10 µM
[19] = second compound 3.16 µM, first compound 0.0316 µM
[20] = second compound 3.16 µM, first compound 0.1 µM
[21] = second compound 3.16 µM, first compound 0.316 µM
[22] = second compound 3.16 µM, first compound 1 µM
[23] = second compound 3.16 µM, first compound 3.16 µM
[24] = second compound 3.16 µM, first compound 10 µM
[25] = second compound 10 µM, first compound 0.0316 µM
[26] = second compound 10 µM, first compound 0.1 µM
[27] = second compound 10 µM, first compound 0.316 µM
[28] = second compound 10 µM, first compound 1 µM
[29] = second compound 10 µM, first compound 3.16 µM
[30] = second compound 10 µM, first compound 10 µM
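Throughout, for viability, T/C: percent of DMSO vehicle-treated spheroid viability set as 100%.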

SMILES	IC50 (second compound 0.1 µM)	IC50 (second compound 0.316 µM)	IC50 (second compound 1 µM)	IC50 (second compound 3.16 µM)	IC50 (second compound 10 µM)	viability, T/C [1]	viability, T/C [2]	viability, T/C [3]	viability, T/C [4]	viability, T/C [5]	viability, T/C [6]	viability, T/C [7]	viability, T/C [8]	viability, T/C [9]	viability, T/C [10]	viability, T/C [11]	viability, T/C [12]	viability, T/C [13]	viability, T/C [14]	viability, T/C [15]	also measured
Nc1ccccc1NC(=O)c1ccc(CNC(=O)OCc2cccnc2)cc1 + Cc1ccccc1N=Nc1ccc(NC(=O)c2ccnn2C)c(C)c1	1810 nM	1710 nM	1330 nM	1410 nM	1500 nM	100%	93.9%	83.2%	63.6%	37%	7.04%	105%	104%	78.2%	68.7%	32.3%	6.55%	95.1%	94.7%	67.9%	viability, T/C [16]: 60.2%; viability, T/C [17]: 30.4%; viability, T/C [18]: 5.37%; viability, T/C [19]: 85.9%; viability, T/C [20]: 78.3%; viability, T/C [21]: 80.6%; viability, T/C [22]: 52.9%; viability, T/C [23]: 34%; viability, T/C [24]: 4.36%; viability, T/C [25]: 81.8%; viability, T/C [26]: 84.1%; viability, T/C [27]: 80.4%; viability, T/C [28]: 54.5%; viability, T/C [29]: 35.2%; viability, T/C [30]: 6.31%
O=C(C=Cc1cccc(S(=O)(=O)Nc2ccccc2)c1)NO + Cc1ccccc1N=Nc1ccc(NC(=O)c2ccnn2C)c(C)c1	2350 nM	2440 nM	2260 nM	2270 nM	2560 nM	137%	128%	126%	92.2%	35.2%	6.57%	135%	144%	121%	107%	32.6%	6.91%	136%	135%	126%	viability, T/C [16]: 87%; viability, T/C [17]: 35.1%; viability, T/C [18]: 6.47%; viability, T/C [19]: 102%; viability, T/C [20]: 127%; viability, T/C [21]: 123%; viability, T/C [22]: 86.5%; viability, T/C [23]: 35.9%; viability, T/C [24]: 5.9%; viability, T/C [25]: 128%; viability, T/C [26]: 128%; viability, T/C [27]: 115%; viability, T/C [28]: 89%; viability, T/C [29]: 41.1%; viability, T/C [30]: 7.02%
O=C(c1cc(Cc2n[nH]c(=O)c3ccccc23)ccc1F)N1CCN(C(=O)C2CC2)CC1 + Cc1ccccc1N=Nc1ccc(NC(=O)c2ccnn2C)c(C)c1	> 10000 nM	> 10000 nM	> 10000 nM	> 10000 nM	> 10000 nM	86.1%	94.5%	99.4%	83.3%	75.8%	79.2%	99.9%	97.2%	79.4%	86.2%	85.8%	58%	89.9%	109%	77.4%	viability, T/C [16]: 81.1%; viability, T/C [17]: 66.2%; viability, T/C [18]: 63.2%; viability, T/C [19]: 75.9%; viability, T/C [20]: 80.6%; viability, T/C [21]: 83.2%; viability, T/C [22]: 72.4%; viability, T/C [23]: 60.3%; viability, T/C [24]: 51.6%; viability, T/C [25]: 101%; viability, T/C [26]: 84.1%; viability, T/C [27]: 95.1%; viability, T/C [28]: 72.9%; viability, T/C [29]: 65.2%; viability, T/C [30]: 65.8%
